Assay results published in article PMC9916770, “Lycorine Carbamate Derivatives for Reversing P-glycoprotein-Mediated Multidrug Resistance in Human Colon Adenocarcinoma Cells” (International Journal of Molecular Sciences, 2023).

Legend:
[1] = test system: MRC-5 cells; experiment: MTT antiproliferative assay, normal lung fibroblasts; type: cell-based; details: Homo sapiens, normal embryonal lung fibroblasts, 72 h, mean ± SD, read-out: IC50 MCR-5 (C)
Experimental: (§1) The human colon adenocarcinoma cell lines Colo205 doxorubicin-sensitive (CCL-222, ATCC, Manassas, VA, USA) and the resistant Colo320/MDR-LRP expressing P-gp were purchased from LGC Promochem (Teddington, UK). The MRC-5 human embryonal lung fibroblast cell line (CCL-171, ATCC) was purchased from Sigma-Aldrich (Merck KGaA, Darmstadt, Germany). The human colon adenocarcinoma cells (Colo205 and Colo320) were cultured in an RPMI 1640 medium supplemented with 10% fetal bovine serum (FBS), 2 mM L-glutamine, 1 mM Na-pyruvate, and 100 mM HEPES. The semi-adherent human colon cancer cells were detached with a trypsin-Versene (EDTA) solution for 5 min at 37 °C. The MRC-5 human embryonal lung fibroblast cells were cultured in EMEM containing 4.5 g/L of glucose and supplemented with a non-essential amino acid mixture, a selection of vitamins, and 10% FBS. The cell lines were incubated at 37 °C, 5% CO2, and 95% air atmosphere.
(§2) The antiproliferative effect of the compounds was tested in decreasing serial dilutions of compounds (starting with 100 µM, then two-fold serial dilution) on human cell lines (Colo205, Colo320, and MRC-5) in 96-well flat-bottomed microtiter plates. Firstly, the compounds were diluted in 100 µL of the medium, and then 6 × 10^3 cells (Colo205 and Colo320), in 100 µL of medium, were added to each well, excluding the medium control wells. The MRC-5 adherent cell line was seeded in the EMEM medium for at least 4 h before the assay. The two-fold serial dilutions of the compounds were made in a separate plate (100–0.19 μM) and then transferred to the plates containing the adherent corresponding cell line. Culture plates were incubated at 37 °C for 72 h, and at the end of the incubation period, 20 μL of MTT (thiazolyl blue tetrazolium bromide) solution (from a 5 mg/mL stock solution) was added to each well and incubated for an additional 4 h. Then, 100 μL of sodium dodecyl sulfate (SDS) solution (10% SDS in 0.01 M HCl) was added to each well, and the plates were further incubated at 37 °C overnight in a CO2 incubator. Cell growth was determined by measuring the optical density (OD) at 540/630 nm with a Multiscan EX ELISA reader (Thermo Labsystems, Cheshire, WA, USA). […] IC50 values and the standard deviation (SD) of triplicate experiments were calculated by using GraphPad Prism 5 software for Windows. Doxorubicin (2 mg/mL, Teva Pharmaceuticals, Budapest, Hungary) was used as a positive control and the vehicle DMSO as the negative control. (1) IC50=[ODsample−ODmedium control/ODcell control−ODmedium control]×100
(§3) The relative resistance (RR) was calculated as the ratio of the IC50 value in the resistant cancer cells and the IC50 in the sensitive cancer cell lines. The selectivity indexes (SI) were calculated as the ratio of the IC50 values in the non-tumor cells and the IC50 in the cancer cell lines. The activity of the compounds toward cancer cells is considered strongly selective if the selectivity index (SI) value is higher than 6, moderately selective if 3 < SI < 6, slightly selective if 1 < SI < 3, and non-selective if SI is lower than 1.

[2] = biological target: T1, recombinant human P-gp membranes (Homo sapiens, UniProt P08183); experiment: P-gp-Glo ATPase activity assay; type: biochemical; details: 25 µM, basal activity = 100%
T1 construct: purchased Promega
T1 sequence (P08183 whole entry): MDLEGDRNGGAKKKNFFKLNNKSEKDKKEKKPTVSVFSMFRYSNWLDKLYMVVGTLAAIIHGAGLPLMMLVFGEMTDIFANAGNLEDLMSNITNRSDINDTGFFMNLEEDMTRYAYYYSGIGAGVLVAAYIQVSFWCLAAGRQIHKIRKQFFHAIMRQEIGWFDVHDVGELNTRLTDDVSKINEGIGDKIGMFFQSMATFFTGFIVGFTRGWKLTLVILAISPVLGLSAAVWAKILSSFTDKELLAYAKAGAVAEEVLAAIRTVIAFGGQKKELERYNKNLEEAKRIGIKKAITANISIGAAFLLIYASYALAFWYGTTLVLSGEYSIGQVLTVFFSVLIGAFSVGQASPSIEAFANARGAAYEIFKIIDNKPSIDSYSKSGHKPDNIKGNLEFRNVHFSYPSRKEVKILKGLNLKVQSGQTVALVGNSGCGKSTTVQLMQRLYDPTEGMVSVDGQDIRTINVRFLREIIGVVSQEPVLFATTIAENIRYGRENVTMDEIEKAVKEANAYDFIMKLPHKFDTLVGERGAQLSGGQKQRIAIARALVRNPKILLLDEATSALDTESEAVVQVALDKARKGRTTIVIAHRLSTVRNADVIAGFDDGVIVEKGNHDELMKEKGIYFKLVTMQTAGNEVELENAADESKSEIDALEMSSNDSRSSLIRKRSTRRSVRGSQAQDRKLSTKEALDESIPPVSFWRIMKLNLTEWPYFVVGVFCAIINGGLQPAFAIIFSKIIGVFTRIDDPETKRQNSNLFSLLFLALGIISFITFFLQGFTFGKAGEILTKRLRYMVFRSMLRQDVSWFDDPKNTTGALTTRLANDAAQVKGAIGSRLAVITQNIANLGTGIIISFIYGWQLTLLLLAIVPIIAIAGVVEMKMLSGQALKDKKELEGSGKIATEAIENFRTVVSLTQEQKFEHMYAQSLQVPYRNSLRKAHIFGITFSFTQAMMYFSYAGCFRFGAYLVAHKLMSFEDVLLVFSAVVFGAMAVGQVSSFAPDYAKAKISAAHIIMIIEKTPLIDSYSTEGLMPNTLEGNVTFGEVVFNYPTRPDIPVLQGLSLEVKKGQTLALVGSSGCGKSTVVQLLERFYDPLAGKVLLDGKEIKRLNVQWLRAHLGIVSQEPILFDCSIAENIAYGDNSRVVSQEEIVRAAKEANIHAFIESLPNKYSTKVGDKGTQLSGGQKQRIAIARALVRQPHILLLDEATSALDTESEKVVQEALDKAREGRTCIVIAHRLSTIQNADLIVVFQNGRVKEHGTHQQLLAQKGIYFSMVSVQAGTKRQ
Experimental: To evaluate the type of interaction between selected compounds and P-gp, namely to determine if they interacted as stimulators or inhibitors, the ATPase activity assay (P-gp.Glo^TM) was performed, using human P-gp membranes. This assay is based on the ATP consumption necessary for the efflux, obtained from ATP hydrolysis by light-generating firefly luciferase reaction. […] Vanadate is a selective and strong P-gp inhibitor. Therefore, the compounds can be classified as inhibitors or stimulators/substrates by comparing P-gp ATPase activity with the basal activity; stimulators give results higher than 100%, while inhibitors result below 100% of the basal activity. […] The results are presented in Figure 2 as the difference between the luciferase luminescence observed when treated with the tested compounds and with vanadate and compared with the basal activity (100%).
The P-glycoprotein ATPase assay was assessed using the P-gp-Glo^TM Assay System (Promega, WI, USA). The assay was performed according to the manufacturer’s instructions. Briefly, 20 µL of recombinant human P-gp membranes (1.25 mg/mL), expressing high levels of human P-gp, were incubated in 20 µL of P-gp-Glo^TM assay buffer for 5 min at 37 °C. […] The reaction was initiated by adding 10 µL of 25 mM MgATP, and incubated at 37 °C for 40 min. The reaction was stopped after adding 50 µL of ATP Detection Reagent, and the samples and controls were incubated at room temperature for 20 min. The emitted luciferase-generated luminescent signal was measured in a CLARIOstar Plus plate reader (BMG Labtech, Ortenberg, Germany) at 580 nm. The relative ATPase activity was calculated based on the ratio between the luminescence measured of the P-gp ATPase activity of each compound and the basal P-gp ATPase activity according to Equation (3): (3) Relative ATPase activity= Lumtreated−Lumuntreated /LumNa3VO4/Lumuntreated

[3] = test system: Colo320 cells; experiment: MTT antiproliferative assay, resistant cells; type: cell-based, human; details: for IC50: Homo sapiens, COLO 320, resistant Colo320, MTT, 72 h, mean ± SD, read-out: IC50 Colo320 (B); for SI (selectivity index) C/B: IC50 MRC-5 / IC50 Colo320; for RR (relative resistance ratio) B/A: IC50 resistant Colo320 / IC50 sensitive Colo205
Experimental: as §1, §2, §3

[4] = test system: Colo320 cells; experiment: Checkerboard drug combination assay with doxorubicin; type: cell-based, human; details: for Type of interaction: Colo320; for CI at IC50 (combination index): Colo320, 50% growth inhibition
Experimental: The interaction of lycorine (1) and some selected derivatives (2, 5, 9, 13, 16, 19, 25, and 26) in combination with the chemotherapeutic drug doxorubicin was performed by the checkerboard assay, a widely used technique for assessing drug interactions, in resistant human Colo320 colon adenocarcinoma cells. The type of drug–drug interaction was evaluated by using the Chou and Talalay method for drug combination and expressed using the combination index (CI) values, and therefore evaluated as synergism (CI < 1), additive (CI = 1), or antagonist (CI > 1).
Drug combination interactions between the compounds and the chemotherapeutic drug doxorubicin were assessed by the checkboard microplate assay on the resistant Colo320, expressing the P-gp transporter. Doxorubicin was serially diluted in the horizontal direction in 100 µL, starting with 8.6 µM, and the compounds were subsequently diluted in the vertical direction in 50 µL. The starting concentration was determined based on the IC50 values. The cells were resuspended in a culture medium and distributed into each well in 50 µL, containing 6 × 10^3 cells, to a final volume of 200 µL per well. The plates were incubated for 72 h at 37 °C in a CO2 incubator, and the cell growth was determined by the MTT staining method, as described previously. Drug interactions were evaluated using CompuSyn software to plot 4 or 5 data points for each ratio (ref software). The results were expressed in terms of combination index (CI) values of 50% growth inhibition, in which a CI value close to 1 indicates additivity, while a CI < 1 is defined as synergy, and a CI > 1 as antagonism.

[5] = test system: Colo205 cells; experiment: MTT antiproliferative assay, sensitive cells; type: cell-based, human; details: for IC50: Homo sapiens, COLO 205, sensitive Colo205, MTT, 72 h, mean ± SD; for SI (selectivity index) C/A: IC50 MRC-5 / IC50 Colo205
Experimental: as §1, §2, §3

| Structure (SMILES) | IC50 [1] [µM] | Effect on basal P-gp ATPase activity [2] | IC50 [3] [µM] | SI (selectivity index) C/B [3] | RR (relative resistance ratio) B/A [3] | Type of interaction [4] | CI at IC50 (combination index) [4] | IC50 [5] [µM] | SI (selectivity index) C/A [5] |
| --- | --- | --- | --- | --- | --- | --- | --- | --- | --- |
| O=C(NCc1ccc(Cl)cc1)OC1C=C2CCN3Cc4cc5c(cc4C(C1O)C23)OCO5 (centres unmarked) [Compound 2, Lycorine 2-yl (4-chlorobenzyl)carbamate] | 58.1 ± 0.83 | decreased the basal activity | 40.4 ± 1.9 | 1.44 | 2.09 | Slight synergism | 0.88 | 19.3 ± 0.87 | 3.01 |
| O=C(NCCc1ccc(Cl)cc1)OC1C=C2CCN3Cc4cc5c(cc4C(C1OC(=O)NCCc1ccc(Cl)cc1)C23)OCO5 (centres unmarked) [Compound 25, Lycorine 1,2-diyl bis[(4-chlorophenethyl)carbamate]] | 4.75 ± 0.08 | decreased the basal activity | 3.14 ± 0.05 | 1.51 | 0.065 | Synergism | 0.50 | 47.7 ± 1.35 | 0.099 |
| O=C(NCCc1ccc(Cl)cc1)OC1C=C2CCN3Cc4cc5c(cc4C(C1O)C23)OCO5 (centres unmarked) [Compound 26, Lycorine 2-yl (4-chlorophenethyl) carbamate] | 52.1 ± 3.09 | decreased the basal activity | 37.9 ± 1.37 | 1.37 | – | Slight synergism | 0.88 | 53.9 ± 0.98 | 0.96 |
| Cc1ccc(CNC(=O)OC2C=C3CCN4Cc5cc6c(cc5C(C2OC(=O)NCc2ccc(C)cc2)C34)OCO6)cc1 (centres unmarked) [Compound 5, Lycorine 1,2-diyl bis[(4-methylbenzyl)carbamate]] | 5.75 ± 0.47 | decreased the basal activity | 32.7 ± 0.62 | 0.17 | – | Strong synergism | 0.13 | > 100 | <0.057 |
| CC(C)(C)c1ccc(CNC(=O)OC2C=C3CCN4Cc5cc6c(cc5C(C2O)C34)OCO6)cc1 (centres unmarked) [Compound 19, Lycorine 2-yl [4-(tert-butyl)benzyl]carbamate] | 43.3 ± 0.75 | decreased the basal activity | 7.64 ± 0.15 | 5.66 | 0.28 | Slight synergism | 0.88 | 26.5 ± 0.476 | 1.63 |
| O=C(NCCc1ccccc1)OC1C=C2CCN3Cc4cc5c(cc4C(C1OC(=O)NCCc1ccccc1)C23)OCO5 (centres unmarked) [Compound 9, Lycorine 1,2-diyl bis(phenethylcarbamate)] | – | decreased the basal activity | 10.4 ± 0.28 | 0.43 | <0.10 | Synergism | 0.56 | > 100 | <0.045 |
| O=C(OC1C=C2CCN3Cc4cc5c(cc4C(C1O)C23)OCO5)N1CCc2ccccc2C1 (centres unmarked) [Compound 13, Lycorine 2-yl 3,4-dihydroisoquinoline-2(1H)-carboxylate] | > 100 | – | 78 ± 3.82 | – | – | Synergism | 0.69 | 96.26 ± 0.33 | – |
